Experimental data as given in patent publication US6384048B1, “Imidazonaphthyridines” (Byk Gulden Lomberg Chemische Fabrik GmbH, priority 1998, dated 2002).

Columns and labels:
[1] = test system: pentagastrin-stimulated acid secretion of the perfused rat stomach; experiment: Secretion-inhibiting action on the perfused rat stomach (pentagastrin-stimulated acid secretion, in vivo); conditions: anesthetized CD rat, dose 3 μmol/kg i.v.
Description: Testing of the Secretion-inhibiting Action on the Perfused Rat Stomach
In Table A which follows, the influence of the compounds according to the invention on the pentagastrin-stimulated acid secretion of the perfused rat stomach after intravenous administration in vivo is shown.
The abdomen of anesthetized rats (CD rat, female, 200-250 g; 1.5 g/kg i.m. urethane) was opened after tracheotomy by a median upper abdominal incision and a PVC catheter was fixed transorally in the esophagus and another via the pylorus such that the ends of the tube just projected into the gastric lumen. The catheter leading from the pylorus led outwards into the right abdominal wall through a side opening.
After thorough rinsing (about 50-100 ml), warm (37° C.) physiological NaCl solution was continuously passed through the stomach (0.5 ml/min, pH 6.8-6.9; Braun-Unita 1). The pH (pH meter 632, glass electrode EA 147; φ=5 mm, Metrohm) and, by titration with a freshly prepared 0.01 N NaOH solution to pH 7 (Dosimat 665 Metrohm), the secreted HCl were determined in the effluent in each case collected at an interval of 15 minutes.
The gastric secretion was stimulated by continuous infusion of […] (=1.65 ml/h) of i.v. pentagastrin (left femoral vein) about 30 min after the end of the operation (i.e. after determination of 2 preliminary fractions). […]

melting point | Structure (SMILES) | Inhibition of acid secretion [1]
220 to 223 °C | CCS[C@@H]1c2ccn3c(C)c(C)nc3c2N[C@H](c2ccccc2)[C@H]1O [Example 5, (7R,8R,9R)-2,3dimethyl-8-hydroxy-7-(ethylthio)-9-phenyl-7,8,9,10-tetrahydro-imidazo[1,2-h][1,7]naphthyridine] | 100%
235 to 236 °C | CCS[C@H]1c2ccn3c(C)c(C)nc3c2N[C@H](c2ccccc2)[C@H]1O [Example 6, (7S,8R,9R)-2,3-dimethyl-8-hydroxy-7-(ethylthio)-9-phenyl-7,8,9,10-tetrahydro-imidazo[1,2-h][1,7]naphthyridine] | 

Further lines, the molecule ahead of its results:

Structure (SMILES) | melting point | Inhibition of acid secretion [1]
CSCCO[C@@H]1c2ccn3c(C)c(C)nc3c2N[C@H](c2ccccc2)[C@H]1O [Example 1, (7R,8R,9R)-2,3-dimethyl-8-hydroxy-7-(2-methylthioethyloxy)-9-phenyl-7,8,9,10-tetrahydroimidazo[1,2-h][1,7]naphthyridine] | 118 to 119 °C | 100%
CSCCO[C@H]1c2ccn3c(C)c(C)nc3c2N[C@H](c2ccccc2)[C@H]1O [Example 2, (7S,8R,9R)-2,3-dimethyl-8-hydroxy-7-(2-methylthioethyloxy)9-phenyl-7,8,9,10-tetrahydroimidazo[1,2-h][1,7]naphthyridine] | 109 to 110 °C | 
Cc1nc2c3c(ccn2c1C)[C@@H](OCC[S+](C)[O-])[C@H](O)[C@@H](c1ccccc1)N3 (stereo partly drawn) [Example 3, (7R,8R,9R)-2,3-dimethyl-8-hydroxy-7-(2-methylsulphinylethoxy)-9phenyl-7,8,9,10-tetrahydroimidazo[1,2-h][1,7]naphthyridine] | 105 to 106 °C | 
Cc1nc2c3c(ccn2c1C)[C@H](OCC[S+](C)[O-])[C@H](O)[C@@H](c1ccccc1)N3 (stereo partly drawn) [Example 4, (7S,8R,9R)-2,3-dimethyl-8-hydroxy-7-(2-methylsulphinylethoxy)-9-phenyl-7,8,9,10-tetrahydroimidazo[1,2-h][1,7]naphthyridine] | 85 to 87 °C | 
